Values quoted from earlier work as cited in US20230357519A1, “REMOVAL OF ODORANTS FROM POST-CONSUMER POLYOLEFIN WASTE” (Borealis AG, priority 2020, published 2023).

conditions: octanol/water; not determined experimentally, generally accepted literature values

Row | SMILES | log Poctanol/water
1 | C=Cc1ccccc1 [Styrene] | 3.05^2
2 | C=C(C)[C@H]1CC=C(C)CC1 [D-Limonene] | 4.57^4
3 | CCCCC(C)CCCC(C)C (centres unmarked) [2,6-Dimethyl decane] | 6.09^6
4 | CCCCC(CCCC)CC(C)C [5-(2-Methylpropyl)-nonane] | 5.03^5
5 | CC(O)C(C)O (centres unmarked) [2,3-Butanediol] | −0.92^1

Next, values leading:

Row | log Poctanol/water | SMILES
6 | 0.84^2 | CCCC(C)=O [2-Pentanone]
7 | 2.73^3 | CCCCC(CC)CO (centres unmarked) [2-Ethyl-1-hexanol]
8 | 3.16^2 | CCCCCCCC(C)=O [2-Nonanone]
